Assay results taken from patent publication US11795204B2 (Zealand Pharma A/S, priority 2012, dated 2023).
Square brackets hold non-standard residues; d marks the D form. Peptide text beside a SMILES is read from it. Dab = NCC[C@H](N)C(=O)O; Dap = NC[C@H](N)C(=O)O; Aib = CC(C)(N)C(=O)O

Legend:
human Glucagon-R = target: T1, human Glucagon-R (Homo sapiens, UniProt P47871); assay: Glucagon receptor assay (cAMP induction, AlphaScreen); format: cell-based; conditions: HEK293 cells expressing the human Glucagon-R, 15 min at 37° C., read-out: GCG-R EC50 in vitro
T1 construct: expressed in transfected cells
T1 sequence (P47871 26-477): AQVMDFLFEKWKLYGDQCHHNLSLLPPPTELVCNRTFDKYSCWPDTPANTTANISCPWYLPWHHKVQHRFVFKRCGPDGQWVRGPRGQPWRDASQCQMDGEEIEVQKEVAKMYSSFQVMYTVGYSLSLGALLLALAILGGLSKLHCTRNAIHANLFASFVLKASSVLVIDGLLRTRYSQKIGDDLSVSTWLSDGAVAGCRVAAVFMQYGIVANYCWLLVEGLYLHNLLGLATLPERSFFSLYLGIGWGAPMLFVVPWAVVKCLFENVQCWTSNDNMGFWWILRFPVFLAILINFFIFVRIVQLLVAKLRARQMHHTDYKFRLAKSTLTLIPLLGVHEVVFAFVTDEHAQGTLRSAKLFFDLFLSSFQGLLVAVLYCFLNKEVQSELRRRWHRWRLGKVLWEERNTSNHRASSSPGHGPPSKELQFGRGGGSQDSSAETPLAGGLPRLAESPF
Experimental: The 5′-end primers additionally encoded a near-Kozak consensus sequence to ensure efficient translation. […] 48 hr after transfection, cells were seeded for limited dilution cloning and selected with 1 mg/ml G418 in the culture medium.
On the day of analysis, growth medium was removed and the cells were washed once with […] of the included Assay buffer with IBMX. Cells were incubated in […] Assay buffer/IBMX containing increasing concentrations of test peptides for 15 min at 37° C. Then the peptides/Assay buffer was removed and cells were lysed by addition of […] Lysis buffer pr. well and incubation for at least 10 min at room temperature. From each well […] cell lysate was transferred to a 384-well OptiPlate and mixed with Donor and Acceptor beads and incubated for 1 h at room temperature. The cAMP content was measured on an Envision plate reader.

physchem = conditions: pH 7.5
Experimental: A stock solution of the test peptide (2 mg/ml; determined by measurement of the absorption of the solution at 280 nm, and using the theoretical extension coefficient based on the content of tryptophan and tyrosine in the peptide) in demineralized water adjusted to pH 2.5 with HCl was prepared, and aliquots were diluted 1:1 in 100 mM acetate buffer (pH 4.0) and 100 mM phosphate buffer (pH 7.5), respectively, and loaded in a standard flat-bottom, non-sterile 96-well UV Microplate. The absorbance of samples (single samples, n=1) at 280 and 325 nm was measured in an absorbance-based plate reader, which was preheated to ambient temperature.

Compound | EC50 (human Glucagon-R) [nM] | solubility (physchem) [µg/mL]
H-HSQGTFTSDYSRYLESARAEDFVKWLEST-OH [Compound 7] | 0.93 | ≥ 1000
CC(C)C[C@H](NC(=O)[C@H](Cc1c[nH]c2ccccc12)NC(=O)[C@H](CCCCN)NC(=O)[C@@H](NC(=O)[C@H](Cc1ccccc1)NC(=O)[C@H](CO)NC(=O)[C@H](CCC(=O)O)NC(=O)[C@H](C)NC(=O)[C@H](CCCNC(=N)N)NC(=O)[C@H](C)NC(=O)C(C)(C)NC(=O)[C@H](CC(=O)O)NC(=O)[C@H](CC(C)C)NC(=O)[C@H](Cc1ccc(O)cc1)NC(=O)[C@H](CCCCN)NC(=O)[C@H](CO)NC(=O)[C@@H](NC(=O)[C@H](CC(=O)O)NC(=O)[C@H](CO)NC(=O)[C@@H](NC(=O)[C@H](Cc1ccccc1)NC(=O)[C@@H](NC(=O)CNC(=O)[C@H](CCC(N)=O)NC(=O)[C@H](CO)NC(=O)[C@@H](N)Cc1c[nH]cn1)[C@@H](C)O)[C@@H](C)O)C(C)C)C(C)C)C(=O)N[C@@H](CCC(=O)O)C(=O)N[C@@H](CO)C(=O)N[C@H](C(=O)O)[C@@H](C)O [Compound 23] (H-HSQGTFTSDVSKYLD[Aib]ARAESFVKWLEST-OH) | 0.16 | ≥ 1000
H-HSQGTFTSDYSKYLDEARAKSFVEWLEST-OH [Compound 28] | 0.035 | ≥ 1000
H-HSQGTFTSDYSKYLDSARAEEFVKWLEST-OH [Compound 9] | 0.03 | ≥ 1000
CC(=O)NC[C@H](NC(=O)[C@H](CO)NC(=O)[C@@H](N)Cc1c[nH]cn1)C(=O)NCC(=O)N[C@H](C(=O)N[C@@H](Cc1ccccc1)C(=O)N[C@H](C(=O)N[C@@H](CO)C(=O)N[C@@H](CC(=O)O)C(=O)N[C@@H](Cc1ccc(O)cc1)C(=O)N[C@@H](CO)C(=O)N[C@@H](CCCCN)C(=O)N[C@@H](Cc1ccc(O)cc1)C(=O)N[C@@H](CC(C)C)C(=O)N[C@@H](CC(=O)O)C(=O)NC(C)(C)C(=O)N[C@@H](C)C(=O)N[C@@H](CCCNC(=N)N)C(=O)N[C@@H](C)C(=O)N[C@@H](CCC(=O)O)C(=O)N[C@@H](CCC(=O)O)C(=O)N[C@@H](Cc1ccccc1)C(=O)N[C@H](C(=O)N[C@@H](CCCCN)C(=O)N[C@@H](Cc1c[nH]c2ccccc12)C(=O)N[C@@H](CC(C)C)C(=O)N[C@@H](CCC(=O)O)C(=O)N[C@@H](CO)C(=O)N[C@H](C(N)=O)[C@@H](C)O)C(C)C)[C@@H](C)O)[C@@H](C)O [Compound 41] (H-HS[Dap](Ac)GTFTSDYSKYLD[Aib]ARAEEFVKWLEST-NH2) | 0.0038 | ≥ 1000
CC(C)C[C@H](NC(=O)[C@H](Cc1c[nH]c2ccccc12)NC(=O)[C@H](CCCCN)NC(=O)[C@@H](NC(=O)[C@H](Cc1ccccc1)NC(=O)[C@H](CCC(=O)O)NC(=O)[C@H](CCC(=O)O)NC(=O)[C@H](C)NC(=O)[C@H](CCCNC(=N)N)NC(=O)[C@H](C)NC(=O)C(C)(C)NC(=O)[C@H](CC(=O)O)NC(=O)[C@H](CC(C)C)NC(=O)[C@H](Cc1ccc(O)cc1)NC(=O)[C@H](CCCCN)NC(=O)[C@H](CO)NC(=O)[C@H](Cc1ccc(O)cc1)NC(=O)[C@H](CC(=O)O)NC(=O)[C@H](CO)NC(=O)[C@@H](NC(=O)[C@H](Cc1ccccc1)NC(=O)[C@@H](NC(=O)CNC(=O)[C@H](Cc1c[nH]cn1)NC(=O)[C@H](CO)NC(=O)[C@@H](N)Cc1c[nH]cn1)[C@@H](C)O)[C@@H](C)O)C(C)C)C(=O)N[C@@H](CCC(=O)O)C(=O)N[C@@H](CO)C(=O)N[C@H](C(N)=O)[C@@H](C)O [Compound 38] (H-HSHGTFTSDYSKYLD[Aib]ARAEEFVKWLEST-NH2) | 0.0047 | ≥ 1000
H-HSQGTFTSDYSKYLDSARAEDFVEWLEST-OH [Compound 6] | 1 | ≥ 1000
H-HSQGTFTSDYSKYLDEARAKSFVEWLEKT-OH [Compound 27] | 0.063 | ≥ 1000
H-HSQGTFTSDYSKYLDSARAEDFVSWLEST-OH [Compound 10] | 0.32 | ≥ 1000
H-HSQGTFTSDYSKYLDKRRAEDFVSWLEST-OH [Compound 18] | 0.026 | ≥ 1000
H-HSQGTFTSDYSKYLDSARAESFVKWLEST-OH [Compound 1] | 0.064 | ≥ 1000
CC(=O)NCC[C@H](NC(=O)[C@H](CO)NC(=O)[C@@H](N)Cc1c[nH]cn1)C(=O)NCC(=O)N[C@H](C(=O)N[C@@H](Cc1ccccc1)C(=O)N[C@H](C(=O)N[C@@H](CO)C(=O)N[C@@H](CC(=O)O)C(=O)N[C@@H](Cc1ccc(O)cc1)C(=O)N[C@@H](CO)C(=O)N[C@@H](CCCCN)C(=O)N[C@@H](Cc1ccc(O)cc1)C(=O)N[C@@H](CC(C)C)C(=O)N[C@@H](CC(=O)O)C(=O)NC(C)(C)C(=O)N[C@@H](C)C(=O)N[C@@H](CCCNC(=N)N)C(=O)N[C@@H](C)C(=O)N[C@@H](CCC(=O)O)C(=O)N[C@@H](CCC(=O)O)C(=O)N[C@@H](Cc1ccccc1)C(=O)N[C@H](C(=O)N[C@@H](CCCCN)C(=O)N[C@@H](Cc1c[nH]c2ccccc12)C(=O)N[C@@H](CC(C)C)C(=O)N[C@@H](CCC(=O)O)C(=O)N[C@@H](CO)C(=O)N[C@H](C(N)=O)[C@@H](C)O)C(C)C)[C@@H](C)O)[C@@H](C)O [Compound 40] (H-HS[Dab](Ac)GTFTSDYSKYLD[Aib]ARAEEFVKWLEST-NH2) | 0.0035 | ≥ 1000
CC(=O)NCC[C@H](NC(=O)[C@H](CO)NC(=O)[C@@H](N)Cc1c[nH]cn1)C(=O)NCC(=O)N[C@H](C(=O)N[C@@H](Cc1ccccc1)C(=O)N[C@H](C(=O)N[C@@H](CO)C(=O)N[C@@H](CC(=O)O)C(=O)N[C@@H](Cc1ccc(O)cc1)C(=O)N[C@@H](CO)C(=O)N[C@@H](CCCCN)C(=O)N[C@@H](Cc1ccc(O)cc1)C(=O)N[C@@H](CC(C)C)C(=O)N[C@@H](CC(=O)O)C(=O)NC(C)(C)C(=O)N[C@@H](C)C(=O)N[C@@H](CCCNC(=N)N)C(=O)N[C@@H](C)C(=O)N[C@@H](CCC(=O)O)C(=O)N[C@@H](CCC(=O)O)C(=O)N[C@@H](Cc1ccccc1)C(=O)N[C@H](C(=O)N[C@@H](CCCCN)C(=O)N[C@@H](Cc1c[nH]c2ccccc12)C(=O)N[C@@H](CC(C)C)C(=O)N[C@@H](CCC(=O)O)C(=O)N[C@@H](CO)C(=O)N[C@H](C(=O)O)[C@@H](C)O)C(C)C)[C@@H](C)O)[C@@H](C)O [Compound 39] (H-HS[Dab](Ac)GTFTSDYSKYLD[Aib]ARAEEFVKWLEST-OH) | 0.0044 | ≥ 1000
CC(C)C[C@H](NC(=O)[C@H](Cc1c[nH]c2ccccc12)NC(=O)[C@H](CCC(=O)O)NC(=O)[C@@H](NC(=O)[C@H](Cc1ccccc1)NC(=O)[C@H](CCCCN)NC(=O)[C@H](CCC(=O)O)NC(=O)[C@H](C)NC(=O)[C@H](CCCNC(=N)N)NC(=O)[C@H](C)NC(=O)C(C)(C)NC(=O)[C@H](CC(=O)O)NC(=O)[C@H](CC(C)C)NC(=O)[C@H](Cc1ccc(O)cc1)NC(=O)[C@H](CCCCN)NC(=O)[C@H](CO)NC(=O)[C@H](Cc1ccc(O)cc1)NC(=O)[C@H](CC(=O)O)NC(=O)[C@H](CO)NC(=O)[C@@H](NC(=O)[C@H](Cc1ccccc1)NC(=O)[C@@H](NC(=O)CNC(=O)[C@H](CCC(N)=O)NC(=O)[C@H](CO)NC(=O)[C@@H](N)Cc1c[nH]cn1)[C@@H](C)O)[C@@H](C)O)C(C)C)C(=O)N[C@@H](CCC(=O)O)C(=O)N[C@@H](CO)C(=O)N[C@H](C(=O)O)[C@@H](C)O [Compound 34] (H-HSQGTFTSDYSKYLD[Aib]ARAEKFVEWLEST-OH) | 0.028 | ≥ 1000
CC(C)C[C@H](NC(=O)[C@H](Cc1c[nH]c2ccccc12)NC(=O)[C@H](C)NC(=O)[C@@H](NC(=O)[C@H](Cc1ccccc1)NC(=O)[C@H](CCC(=O)O)NC(=O)[C@H](CCC(=O)O)NC(=O)[C@H](C)NC(=O)[C@H](CCCNC(=N)N)NC(=O)[C@H](C)NC(=O)C(C)(C)NC(=O)[C@H](CC(=O)O)NC(=O)[C@H](CC(C)C)NC(=O)[C@H](Cc1ccc(O)cc1)NC(=O)[C@H](CCCCN)NC(=O)[C@H](CO)NC(=O)[C@H](Cc1ccc(O)cc1)NC(=O)[C@H](CC(=O)O)NC(=O)[C@H](CO)NC(=O)[C@@H](NC(=O)[C@H](Cc1ccccc1)NC(=O)[C@@H](NC(=O)CNC(=O)[C@H](CCC(N)=O)NC(=O)[C@H](CO)NC(=O)[C@@H](N)Cc1c[nH]cn1)[C@@H](C)O)[C@@H](C)O)C(C)C)C(=O)N[C@@H](CCC(=O)O)C(=O)N[C@@H](CO)C(=O)N[C@H](C(=O)O)[C@@H](C)O [Compound 35] (H-HSQGTFTSDYSKYLD[Aib]ARAEEFVAWLEST-OH) | 0.014 | ≥ 1000
CC(C)C[C@H](NC(=O)[C@H](Cc1c[nH]c2ccccc12)NC(=O)[C@H](CO)NC(=O)[C@@H](NC(=O)[C@H](Cc1ccccc1)NC(=O)[C@H](CCC(=O)O)NC(=O)[C@H](CCC(=O)O)NC(=O)[C@H](C)NC(=O)[C@H](CCCNC(=N)N)NC(=O)[C@H](C)NC(=O)C(C)(C)NC(=O)[C@H](CC(=O)O)NC(=O)[C@H](CC(C)C)NC(=O)[C@H](Cc1ccc(O)cc1)NC(=O)[C@H](CCCCN)NC(=O)[C@H](CO)NC(=O)[C@H](Cc1ccc(O)cc1)NC(=O)[C@H](CC(=O)O)NC(=O)[C@H](CO)NC(=O)[C@@H](NC(=O)[C@H](Cc1ccccc1)NC(=O)[C@@H](NC(=O)CNC(=O)[C@H](CCC(N)=O)NC(=O)[C@H](CO)NC(=O)[C@@H](N)Cc1c[nH]cn1)[C@@H](C)O)[C@@H](C)O)C(C)C)C(=O)N[C@@H](CCC(=O)O)C(=O)N[C@@H](CCCCN)C(=O)N[C@H](C(=O)O)[C@@H](C)O [Compound 33] (H-HSQGTFTSDYSKYLD[Aib]ARAEEFVSWLEKT-OH) | 0.044 | ≥ 1000
